According to US20170260178A1 (SPERO GYRASE, INC., priority 2012, published 2017):
In brackets after ≈: the same amount, converted by molar mass.

Tests used:
S. aureus (ATCC 29213) = test: Bacterial assay: MIC against S. aureus; type: cell-based, Staphylococcus aureus; conditions: Staphylococcus aureus, ATCC29213, read-out: minimal inhibitory concentration (MIC)
S. pyogenes (ATCC 51339) = test: Bacterial assay: MIC against S. pyogenes; type: cell-based, Streptococcus pyogenes; conditions: Streptococcus pyogenes, ATCC51339, read-out: minimal inhibitory concentration (MIC)

Row | Compound | MIC (S. aureus (ATCC 29213)) | MIC (S. pyogenes (ATCC 51339))
1 | CCNC(=O)Nc1nc2cc(-c3cnc(C4(O)CCCCC4)nc3)cc(-c3ccccn3)c2s1 [Compound 47, 1-ethyl-3-[5-[2-(1-hydroxycyclohexyl)pyrimidin-5-yl]-7-(2-pyridyl)-1,3-benzothiazol-2-yl]urea] | 8 µg/mL (≈ 16.9 µM) | 8 µg/mL (≈ 16.9 µM)
2 | CCNC(=O)Nc1nc2cc(-c3cnc(C(C)(C)O)s3)cc(-c3ccccn3)c2s1 [Compound 48, 1-ethyl-3-[5-[2-(1-hydroxy-1-methyl-ethyl)thiazol-5-yl]-7-(2-pyridyl)-1,3-benzothiazol-2-yl]urea] | ≤ 1 µg/mL | ≤ 1 µg/mL
3 | CCNC(=O)Nc1nc2cc(-c3cnc(C(C)(C)O)cn3)cc(-c3ccccn3)c2s1 [Compound 49, 1-ethyl-3-[5-[5-(1-hydroxy-1-methyl-ethyl)pyrazin-2-yl]-7-(2-pyridyl)-1,3-benzothiazol-2-yl]urea] | ≤ 1 µg/mL | ≤ 1 µg/mL
4 | CCNC(=O)Nc1nc2cc(-c3cnc(C(C)(C)O)nc3)cc(-c3cc(N4CCC(C)(C(=O)O)CC4)ccn3)c2s1 [Compound 50, 1-[2-[2-(ethylcarbamoylamino)-5-[2-(1-hydroxy-1-methyl-ethyl)pyrimidin-5-yl]-1,3-benzothiazol-7-yl]-4-pyridyl]-4-methyl-piperidine-4-carboxylic acid] | ≤ 1 µg/mL | ≤ 1 µg/mL
5 | CCNC(=O)Nc1nc2cc(-c3cnc(C(C)(C)O)nc3)cc(-c3cccc(N4CCC(C)(C(=O)O)CC4)n3)c2s1 [Compound 51, 1-[6-[2-(ethylcarbamoylamino)-5-[2-(1-hydroxy-1-methyl-ethyl)pyrimidin-5-yl]-1,3-benzothiazol-7-yl]-2-pyridyl]-4-methyl-piperidine-4-carboxylic acid] | 4 µg/mL (≈ 6.95 µM) | ≤ 1 µg/mL
6 | CCNC(=O)Nc1nc2cc(-c3cnc(C(C)(C)O)nc3)cc(-c3ccnc(N4CCC(C)(C(=O)O)CC4)n3)c2s1 [Compound 52, 1-[4-[2-(ethylcarbamoylamino)-5-[2-(1-hydroxy-1-methyl-ethyl)pyrimidin-5-yl]-1,3-benzothiazol-7-yl]pyrimidin-2-yl]-4-methyl-piperidine-4-carboxylic acid] | 2 µg/mL (≈ 3.47 µM) | ≤ 1 µg/mL
7 | CCNC(=O)Nc1nc2cc(-c3cnc(C(C)(C)O)nc3)cc(-c3cc(NC4CCC(C)(C(=O)O)CC4)ccn3)c2s1 (centres unmarked) [Compound 54, 4-[[2-[2-(ethylcarbamoylamino)-5-[2-(1-hydroxy-1-methyl-ethyl)pyrimidin-5-yl]-1,3-benzothiazol-7-yl]-4-pyridyl]amino]-1-methyl-cyclohexanecarboxylic acid] | ≤ 1 µg/mL | ≤ 1 µg/mL
8 | CCCNC(=O)Nc1nc2cc(-c3cnc(C(C)(C)O)nc3)cc(-c3ccccn3)c2s1 [Compound 57, 1-[5-[2-(1-hydroxy-1-methyl-ethyl)pyrimidin-5-yl]-7-(2-pyridyl)-1,3-benzothiazol-2-yl]-3-propyl-urea] | ≤ 1 µg/mL | 2 µg/mL (≈ 4.46 µM)
9 | CCNC(=O)Nc1nc2cc(-c3cnc(C(O)C(C)(C)C)nc3)cc(-c3ccccn3)c2s1 (centres unmarked) [Compound 60, 1-ethyl-3-[5-[2-(1-hydroxy-2,2-dimethyl-propyl)pyrimidin-5-yl]-7-(2-pyridyl)-1,3-benzothiazol-2-yl]urea] | ≤ 1 µg/mL | ≤ 1 µg/mL
10 | CCNC(=O)Nc1nc2cc(-c3cnc(C(C)O)nc3)cc(-c3cc(CN4CC(O)C4)ccn3)c2s1 (centres unmarked) [Compound 65, 1-ethyl-3-[7-[4-[(3-hydroxyazetidin-1-yl)methyl]-2-pyridyl]-5-[2-(1-hydroxyethyl)pyrimidin-5-yl]-1,3-benzothiazol-2-yl]urea] | 2 µg/mL (≈ 3.96 µM) | ≤ 1 µg/mL
11 | CCNC(=O)Nc1nc2cc(-c3cnc(C(C)O)nc3)cc(-c3cc(CN4CC(C)(O)C4)ccn3)c2s1 (centres unmarked) [Compound 66, 1-ethyl-3-[5-[2-(1-hydroxyethyl)pyrimidin-5-yl]-7-[4-[(3-hydroxy-3-methyl-azetidin-1-yl)methyl]-2-pyridyl]-1,3-benzothiazol-2-yl]urea] | 2 µg/mL (≈ 3.85 µM) | ≤ 1 µg/mL
12 | CCNC(=O)Nc1nc2cc(-c3cnc(C(C)(C)O)nc3)cc(-c3cc(CN4CCC(C)(O)C4)ccn3)c2s1 (centres unmarked) [Compound 67, 1-ethyl-3-[5-[2-(1-hydroxy-1-methyl-ethyl)pyrimidin-5-yl]-7-[4-[(3-hydroxy-3-methyl-pyrrolidin-1-yl)methyl]-2-pyridyl]-1,3-benzothiazol-2-yl]urea] | ≤ 1 µg/mL | ≤ 1 µg/mL
13 | CCNC(=O)Nc1nc2cc(-c3cnc(C(C)O)nc3)cc(-c3cc(CN4CCC[C@H]4C(=O)O)ccn3)c2s1 (stereo partly drawn) [Compound 72, (2S)-1-[[2-[2-(ethylcarbamoylamino)-5-[2-(1-hydroxyethyl)pyrimidin-5-yl]-1,3-benzothiazol-7-yl]-4-pyridyl]methyl]pyrrolidine-2-carboxylic acid] | 8 µg/mL (≈ 14.6 µM) | 8 µg/mL (≈ 14.6 µM)
14 | CCNC(=O)Nc1nc2cc(-c3cnc(C(C)O)nc3)cc(-c3cc(CN4CC[C@@H](O)C4)ccn3)c2s1 (stereo partly drawn) [Compound 77, 1-ethyl-3-[5-[2-(1-hydroxyethyl)pyrimidin-5-yl]-7-[4-[[(3R)-3-hydroxypyrrolidin-1-yl]methyl]-2-pyridyl]-1,3-benzothiazol-2-yl]urea] | ≤ 1 µg/mL | ≤ 1 µg/mL
15 | CCNC(=O)Nc1nc2cc(-c3cnc(C(C)(C)O)nc3)cc(-c3nccc(NCCOC)n3)c2s1 [Compound 78, 1-ethyl-3-[5-[2-(1-hydroxy-1-methyl-ethyl)pyrimidin-5-yl]-7-[4-(2-methoxyethylamino)pyrimidin-2-yl]-1,3-benzothiazol-2-yl]urea] | ≤ 1 µg/mL | ≤ 1 µg/mL
16 | CCNC(=O)Nc1nc2cc(-c3cnc(C(C)O)nc3)cc(-c3cc(CN4CCC(C)(O)C4)ccn3)c2s1 (centres unmarked) [Compound 84, 1-ethyl-3-[5-[2-(1-hydroxyethyl)pyrimidin-5-yl]-7-[4-[(3-hydroxy-3-methyl-pyrrolidin-1-yl)methyl]-2-pyridyl]-1,3-benzothiazol-2-yl]urea] | ≤ 1 µg/mL | ≤ 1 µg/mL
17 | CCNC(=O)Nc1nc2cc(-c3cnc(C(C)(C)O)nc3)cc(-c3nccc(NCCO)n3)c2s1 [Compound 85, 1-ethyl-3-[7-[4-(2-hydroxyethylamino)pyrimidin-2-yl]-5-[2-(1-hydroxy-1-methyl-ethyl)pyrimidin-5-yl]-1,3-benzothiazol-2-yl]urea] | 2 µg/mL (≈ 4.04 µM) | ≤ 1 µg/mL
18 | CCNC(=O)Nc1nc2cc(-c3cnc(C(C)(C)O)nc3)cc(-c3nccc(N4CC(C)(O)C4)n3)c2s1 [Compound 86, 1-ethyl-3-[7-[4-(3-hydroxy-3-methyl-azetidin-1-yl)pyrimidin-2-yl]-5-[2-(1-hydroxy-1-methyl-ethyl)pyrimidin-5-yl]-1,3-benzothiazol-2-yl]urea] | 8 µg/mL (≈ 15.4 µM) | ≤ 1 µg/mL
19 | CCNC(=O)Nc1nc2cc(-c3cnc(C(C)(C)OC(=O)N4CCN(C)CC4)nc3)cc(-c3ccccn3)c2s1 [Compound 89, [1-[5-[2-(ethylcarbamoylamino)-7-(2-pyridyl)-1,3-benzothiazol-5-yl]pyrimidin-2-yl]-1-methyl-ethyl] 4-methylpiperazine-1-carboxylate] | 8 µg/mL (≈ 14.3 µM) | 2 µg/mL (≈ 3.57 µM)
20 | CCNC(=O)Nc1nc2cc(-c3cnc(C(C)O)nc3)cc(-c3cc(O)ccn3)c2s1 (centres unmarked) [Compound 90, 1-ethyl-3-[5-[2-(1-hydroxyethyl)pyrimidin-5-yl]-7-(4-hydroxy-2-pyridyl)-1,3-benzothiazol-2-yl]urea] | 16 µg/mL (≈ 36.7 µM) | 2 µg/mL (≈ 4.58 µM)
21 | CCNC(=O)Nc1nc2cc(-c3cnc(C(C)(C)O)nc3)cc(-c3nccc(NCCN4CCOCC4)n3)c2s1 [Compound 91, 1-ethyl-3-[5-[2-(1-hydroxy-1-methyl-ethyl)pyrimidin-5-yl]-7-[4-(2-morpholinoethylamino)pyrimidin-2-yl]-1,3-benzothiazol-2-yl]urea] | 2 µg/mL (≈ 3.55 µM) | ≤ 1 µg/mL
22 | CCNC(=O)Nc1nc2cc(-c3cnc(C(C)O)nc3)cc(-c3nccc(N4CC(OC)C4)n3)c2s1 (centres unmarked) [Compound 93, 1-ethyl-3-[5-[2-(1-hydroxyethyl)pyrimidin-5-yl]-7-[4-(3-methoxyazetidin-1-yl)pyrimidin-2-yl]-1,3-benzothiazol-2-yl]urea] | ≤ 1 µg/mL | ≤ 1 µg/mL
23 | CCNC(=O)Nc1nc2cc(-c3cnc(C(C)O)nc3)cc(-c3nccc(N4CCOCC4)n3)c2s1 (centres unmarked) [Compound 94, 1-ethyl-3-[5-[2-(1-hydroxyethyl)pyrimidin-5-yl]-7-(4-morpholinopyrimidin-2-yl)-1,3-benzothiazol-2-yl]urea] | ≤ 1 µg/mL | ≤ 1 µg/mL
24 | CCNC(=O)Nc1nc2cc(-c3cnc(C(C)(C)O)nc3)cc(-c3nccc(N4CCC(C)(C(=O)O)CC4)n3)c2s1 [Compound 97, 1-[2-[2-(ethylcarbamoylamino)-5-[2-(1-hydroxy-1-methyl-ethyl)pyrimidin-5-yl]-1,3-benzothiazol-7-yl]pyrimidin-4-yl]-4-methyl-piperidine-4-carboxylic acid] | 4 µg/mL (≈ 6.94 µM) | ≤ 1 µg/mL
25 | CCNC(=O)Nc1nc2cc(-c3cnc(C(O)(CC)CC)nc3)cc(-c3ccccn3)c2s1 [Compound 98, 1-ethyl-3-[5-[2-(1-ethyl-1-hydroxy-propyl)pyrimidin-5-yl]-7-(2-pyridyl)-1,3-benzothiazol-2-yl]urea] | ≤ 1 µg/mL | ≤ 1 µg/mL
26 | CCNC(=O)Nc1nc2cc(-c3cnc(C(C)(C)O)nc3)cc(-c3nccc(CN4CCOCC4)n3)c2s1 [Compound 101, 1-ethyl-3-[5-[2-(1-hydroxy-1-methyl-ethyl)pyrimidin-5-yl]-7-[4-(morpholinomethyl)pyrimidin-2-yl]-1,3-benzothiazol-2-yl]urea] | ≤ 1 µg/mL | ≤ 1 µg/mL
27 | CCNC(=O)Nc1nc2cc(-c3cnc(C(C)(C)O)nc3)cc(-c3cncc(CN4CCOCC4)n3)c2s1 [Compound 102, 1-ethyl-3-[5-[2-(1-hydroxy-1-methyl-ethyl)pyrimidin-5-yl]-7-[6-(morpholinomethyl)pyrazin-2-yl]-1,3-benzothiazol-2-yl]urea] | 16 µg/mL (≈ 29.9 µM) | 16 µg/mL (≈ 29.9 µM)
28 | CCNC(=O)Nc1nc2cc(-c3cnc(C(C)(C)O)nc3)cc(-c3nccc(NCC(C)(C)O)n3)c2s1 [Compound 103, 1-ethyl-3-[5-[2-(1-hydroxy-1-methyl-ethyl)pyrimidin-5-yl]-7-[4-[(2-hydroxy-2-methyl-propyl)amino]pyrimidin-2-yl]-1,3-benzothiazol-2-yl]urea] | 2 µg/mL (≈ 3.83 µM) | ≤ 1 µg/mL
